Where only a bound is given, the exact number is not on record here.

Series [1] concerns the target T1, SNM1A (Homo sapiens, UniProt Q6PJP8).
T1 sequence (Q6PJP8 676-1040): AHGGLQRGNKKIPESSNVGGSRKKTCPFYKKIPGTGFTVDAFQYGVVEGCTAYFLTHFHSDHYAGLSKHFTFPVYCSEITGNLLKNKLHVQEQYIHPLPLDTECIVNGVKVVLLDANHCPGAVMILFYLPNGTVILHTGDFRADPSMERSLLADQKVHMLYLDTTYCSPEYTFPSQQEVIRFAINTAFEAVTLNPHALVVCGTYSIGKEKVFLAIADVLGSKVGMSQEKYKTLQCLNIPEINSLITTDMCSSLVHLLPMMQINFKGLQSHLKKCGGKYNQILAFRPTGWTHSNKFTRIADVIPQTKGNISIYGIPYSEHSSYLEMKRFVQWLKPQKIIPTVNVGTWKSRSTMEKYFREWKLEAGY
As to the kind of experiment: real-time fluorescence-based nuclease assay, SNM1A. The following applies: for IC50: read-out: SNM1A IC50. Also noted: DNA encoding for the MBL and β-CASP domains of SNM1A (aa 676–1040) was cloned into the baculovirus transfer vector pFB-LIC-Bse; inferred from vector pFB-LIC-Bse and the IMAC purification; made in house; host or cells: Sf9 insect cells (baculovirus). Format: biochemical. As to the method: In brief, the fluorescence-based nuclease assay utilises a chemically modified 20-nucleotide ssDNA substrate with a fluorescein isothiocyanate (FITC) derived 5′-group and an internal black-hole-quencher-1 (BHQ-1), located eight nucleotides distal to the fluorescein group. In the intact substrate the BHQ-1 suppresses fluorescence, however, exonucleolytic digestion of the substrate from the 5′ end by SNM1A uncouples the BHQ-1 and FITC moieties (see Fig. 1D). Spectra were measured every 140 seconds with an increase in fluorescence indicating enzymatic activity by SNM1A (concentration: 0.1 nM).
(§1) Fluorescence-based nuclease digestion SNM1A–C assays were performed as described.[30,45] In the case of SNM1A and SNM1B, a 20-mer oligonucleotide with a 5′ FITC-conjugated-T and an internal BHQ-1 (black hole quencher) conjugated-T, eight nucleotides distal (3′) to the fluor was utilised; whereas for SNM1C a 20-mer oligonucleotide with a 5′ FITC-conjugated-T and a 3′ BHQ-1(black hole quencher) was used to capture all possible endonucleolytic incisions. Reactions (25 μL) were performed in 384 well microplates in nuclease buffer (20 mM HEPES-KOH pH 7.5, 50 mM KCl, 10 mM MgCl2, 0.5 mM TCEP, 0.05% (v/v) Triton-X, 0.1 mg mL^−1 BSA, 5% (v/v) glycerol) with SNM1A/B/C (0.1 nM SNM1A, 0.5 nM SNM1B and 1 nM SNM1C) as indicated. Proteins were incubated for 10 min at RT with the stated compound where applicable, before the reaction was initiated with the addition of 10 nM DNA substrate. […] Fluorescence spectra were measured every 140 s, for 35 min, at 37 °C. The fluorescence intensity of each well was plotted against compound concentration and fitted using a log (inhibitor) response curve using GraphPad Prism software (GraphPad Software, Inc., La Jolla, CA, USA).

Series [2] addresses T2, SNM1B (Homo sapiens, UniProt Q9H816).
T2 construct: for the MBL and β-CASP domains of SNM1B (aa 1–335) into baculoviral expression vectors pFB-CT10HF-LIC; made in house; host or cells: Sf9 insect cells (baculovirus)
T2 sequence (Q9H816 1-335): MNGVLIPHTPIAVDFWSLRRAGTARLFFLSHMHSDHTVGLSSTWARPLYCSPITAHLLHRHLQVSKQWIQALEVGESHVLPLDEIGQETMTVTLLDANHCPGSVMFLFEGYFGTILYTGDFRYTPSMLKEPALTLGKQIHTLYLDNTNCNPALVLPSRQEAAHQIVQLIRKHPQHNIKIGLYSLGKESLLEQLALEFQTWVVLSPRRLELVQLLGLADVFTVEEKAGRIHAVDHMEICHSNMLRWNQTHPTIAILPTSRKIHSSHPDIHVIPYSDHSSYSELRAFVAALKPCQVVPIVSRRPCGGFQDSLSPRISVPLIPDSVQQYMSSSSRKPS
Kind of series: gel-based nuclease assay, SNM1B. Type of series: biochemical. The following applies: 1 nM SNM1B. The source says:
(§2) To validate the inhibition of SNM1A, SNM1B, and SNM1C observed in the fluorescence-based screening assays, we then performed gel-based assays using 3′ terminally-labelled oligonucleotide substrates that enable both quantitative and qualitative (visual) assessment of the pattern of inhibition, for a subset of compounds. Importantly, whereas the fluorescence-based assay measures a single hydrolytic event at the substrate terminus, the gel-based nuclease assay informs on the pattern of digestion of the entire 51-mer substrate DNA over time.
(§3) Standard exonuclease assays were carried out in a 10 μL final volume containing 20 mM HEPES-KOH, pH 7.5, 50 mM KCl, 0.5 mM TCEP, 10 mM MgCl2, 0.05% (v/v) Triton X-100, 5% (v/v) glycerol, and SNM1 proteins as indicated. Inhibitors were dissolved in DMSO and diluted immediately prior to the reaction in the above buffer. Inhibitors were serially diluted two-fold from 100 μM. The DMSO concentration was kept constant at 0.1% (v/v) in the final reaction mixture. Inhibitors were incubated with the indicated SNM1 enzyme for 10 minutes at room temperature; reactions were initiated by addition of 10 nM DNA substrate and incubated at 37 °C for 20 min. Reactions were quenched by addition of 5 μL stop solution (95% formamide, 10 mM EDTA, 0.25% (v/v) xylene cyanol, 0.25% (v/v) bromophenol blue) and heated at 95 °C for 3 min. Reactions were analysed by 20% denaturing polyacrylamide gel electrophoresis solution of 19 : 1 acrylamide:bis-acrylamide, BioRad and 7 M urea (Sigma Aldrich) in 1 × TBE (Tris-borate EDTA) buffer. Electrophoresis was carried out at 525 V for 75 minutes; gels were subsequently fixed for 60 minutes in a 50% (v/v) methanol, 10% (v/v) acetic acid solution, and dried at 80 °C for two hours under vacuum. Dried gels were exposed to a Kodak Phosphor imager screen and scanned using a Typhoon 9500 instrument (GE Healthcare), scanned images were quantified using ImageJ.
Suppl. Figure 10. Increasing concentrations (as indicated, in μM) of compounds incubated with 1 nM SNM1B or 2.5 nM SNM1C (room temperature, 10 min), before initiating nuclease reaction by addition of ssDNA (37 °C, 20 min). Products were analysed by 20% denaturing PAGE. Gels are representative versions from a minimum of three independent experimental repeats.
(1 picture or pasted object on this page, not shown here)

Series [3] concerns U2OS (osteosarcoma) cells. Kind of series: clonogenic survival assay, U2OS cells. Type of series: cell-based, human. The following applies: for cell death as single agent: U2OS, 50 μM compound. As to the method:
Clonogenic assays were performed in 10 cm tissue culture dishes (for RPE-1 cells, U2OS cells and derived clones). Cells (1000 per dish) were seeded in complete media (10 mL) and allowed to attach overnight, then treated with cisplatin or cisplatin plus inhibitor for the times stated. Following treatments, cells were allowed to grow and form colonies for 10 days. Colonies formed were stained with Coomassie R250 (Sigma) and counted on a COLCount Colony Counter (Oxford Optronix). All experiments represent the mean (±SEM) of at least three biological repeats of duplicate dishes/flasks for each treatment.

The target of series [4] is T1, SNM1A. Kind of series: gel-based nuclease assay, SNM1A. Format: biochemical. Also noted: DNA encoding for the MBL and β-CASP domains of SNM1A (aa 676–1040) was cloned into the baculovirus transfer vector pFB-LIC-Bse; inferred from vector pFB-LIC-Bse and the IMAC purification; made in house; host or cells: Sf9 insect cells (baculovirus). The following applies: 0.5 nM SNM1A.
Source text: as §2, §3

Series [5] concerns the target T3, SNM1C (Homo sapiens, UniProt Q96SD1).
T3 construct: for the MBL and β-CASP domains of SNM1C (aa 1–362) into the baculovirus expression vector pBF-6HZB; made in house; host or cells: Sf9 insect cells (baculovirus)
Kind of series: real-time fluorescence-based nuclease assay, SNM1C. Format: biochemical.
Source text: There is structural similarity between SNM1A, SNM1B, and SNM1C and major mechanistic features are likely conserved between the three nucleases. We therefore tested (13) and other hydroxamic acid analogues for inhibition of SNM1B and SNM1C. […] Note that the substrate utilised for the high-throughput fluorescence based and subsequent SNM1A and SNM1B assays differed slightly for SNM1C reflecting its (primarily) endonucleolytic, rather than exonucleolytic, activity (ESI Fig. 9 ^†).
as §1

Series [6] in a line: solubility. Format: physicochemical.
Series [7] concerns the target T3, SNM1C. As to the kind of experiment: gel-based nuclease assay, SNM1C. Format: biochemical.
Source text: as §2, §3
Suppl. Figure 10. […] Products were analysed by 20% denaturing PAGE. […]

The mark [8] stands for this setting: real-time fluorescence-based nuclease assay, resynthesised compounds.

T3 sequence (Q96SD1 1-362): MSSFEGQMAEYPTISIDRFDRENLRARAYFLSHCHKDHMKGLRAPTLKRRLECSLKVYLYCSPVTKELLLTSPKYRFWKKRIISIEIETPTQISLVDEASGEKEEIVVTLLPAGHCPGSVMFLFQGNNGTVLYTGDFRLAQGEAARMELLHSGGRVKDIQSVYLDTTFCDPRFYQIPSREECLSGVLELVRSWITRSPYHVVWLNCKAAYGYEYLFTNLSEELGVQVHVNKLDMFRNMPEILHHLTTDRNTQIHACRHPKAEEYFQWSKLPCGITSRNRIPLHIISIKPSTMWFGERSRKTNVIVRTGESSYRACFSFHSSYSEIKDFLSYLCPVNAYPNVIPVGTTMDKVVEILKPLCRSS

For orientation: IC50 means the concentration at which inhibition is half-maximal. Turning to `C=CCNc1nc(N[C@H](C)C(=O)NO)c2cc(Cl)ccc2n1` [compound 12], in series [1] (setting [8]), the IC50 was 2.2 µM. In series [2], the “inhibition of SNM1B in gel-based assay” value is “good inhibition”. The “effect on cisplatin cytotoxicity” value in series [3] (U2OS wild-type, 50 μM compound 20 hours pre-treatment, 0–15 μM cisplatin) is “potentiation of cisplatin cytotoxicity”. In addition, in series [3], the “cell death as single agent” value is recorded as at most 10%. Further, the “inhibition of SNM1A in gel-based assay” value in series [4] was “good inhibition”.

Turning to `C=CCNc1nc(NC(CO)C(=O)NO)c2cc(Cl)ccc2n1` (stereo not shown) [compound 14], the IC50 in series [1] (setting [8]) was 4.1 µM.

`C=CCNC(=O)c1nc(N[C@@H](C)C(=O)NO)c2ccccc2n1` [compound 20]: in series [1] (fluorescence-based assay), the “decrease in SNM1A potency compared to 13” value stood at 100 fold. In addition, the IC50 in series [1] (setting [8]) stood at 84 µM. Also, in series [2], the “inhibition of SNM1B in gel-based assay” value is “good inhibition”. For the same compound, the “inhibition of SNM1A in gel-based assay” value in series [4] is “good inhibition”.

Turning to `C=CCNc1nc(N[C@@H](CC(C)C)C(=O)OC)c2cc(Cl)ccc2n1` [compound 7], the IC50 in series [1] (setting [8]) was above 1000 µM.

For the compound `C[C@H](Nc1nc(NCc2ccccc2)nc2ccc(Cl)cc12)C(=O)NO` [compound 16], the IC50 in series [5] (real-time fluorescence-based nuclease assay) worked out at 1.1 µM; in series [1] (setting [8]) it was 34 µM.

Regarding `C[C@H](Nc1nc(N(C)C)nc2ccc(Cl)cc12)C(=O)NO` [compound 22], in series [1] (setting [8]), the IC50 was determined as 11 µM.

On to `C[C@H](Nc1nc(N2CCOCC2)nc2ccc(Cl)cc12)C(=O)NO` [compound 15], for which the IC50 in series [1] (setting [8]) was 42 µM.

Regarding `CCCN(C)c1nc(N[C@@H](C)C(=O)NO)c2cc(Cl)ccc2n1` [compound 17], in series [1] (setting [8]), the IC50 stood at 20 µM.

For the compound `C[C@H](Nc1nc(N(C)C)nc2ccc(F)cc12)C(=O)NO` [compound 23], in series [1] (setting [8]), the 50% inhibitory concentration (IC50) is 13 µM.

As to `COc1ccc2nc(N(C)C)nc(N[C@@H](C)C(=O)NO)c2c1` [compound 24], in series [1] (setting [8]), the half-maximal inhibitory concentration (IC50) worked out at 74 µM.

`O=c1[nH]c2cnc3ccc(Cl)cc3c2[nH]c1=O` [compound 2]: the IC50 in series [1] (setting [8]) came out at 2 µM. In addition, the “solubility” value in series [6] is listed as “poor solubility”.

For `C=CCNc1nc(NCC(=O)NO)c2cc(Cl)ccc2n1` [compound 11], the IC50 in series [1] (setting [8]) turned out to be 17 µM.

In the case of `C=CCNc1nc(N[C@H](CO)CC(C)C)c2cc(Cl)ccc2n1` [compound 9], the IC50 in series [1] (setting [8]) is above 1000 µM.

Take `C=CCNc1nc(NC(CC(C)C)C(=O)NO)c2cc(Cl)ccc2n1` (stereo not shown) [compound 10]: in series [1] (fluorescence-based assay), the “increase in SNM1A potency compared to K1 (6)” value came out at 3 fold. In addition, the IC50 in series [1] (setting [8]) stood at 33 µM.

As for `CCN(CC)c1nc(N[C@@H](C)C(=O)NO)c2cc(Cl)ccc2n1` [compound 18], the “selectivity among SNM1A, SNM1B, SNM1C” value in series [5] (fluorescence-based assays) is given as “only potent against SNM1C”. For the same compound, in series [1] (setting [8]), the IC50 was above 100 µM.

Consider `COc1cc2c3c(cccc3c1)C(=O)N(O)C2=O` [compound 3], for which the IC50 in series [1] (setting [8]) turned out to be 2.9 µM. For the same compound, the “solubility” value in series [6] is given as “poor solubility”.

With `C=CCNc1nc(N[C@@H](CC(C)C)C(N)=O)c2cc(Cl)ccc2n1` [compound 8], the IC50 in series [1] (setting [8]) was above 1000 µM.

Take `CCOc1nc(N[C@@H](C)C(=O)NO)c2cc(Cl)ccc2n1` [compound 21]: in series [1] (setting [8]), the IC50 was found to be 67 µM. Also, the “concentration giving complete inhibition of SNM1C digestion” value in series [7] was around 6 µM. Besides, the “inhibition of SNM1C in gel-based assay” value in series [7] (2.5 nM SNM1C) is “clearly inhibits the nuclease activity of SNM1C”.

Turning to `C=CCNc1nc(N[C@@H](C)C(=O)NO)c2cc(Cl)ccc2n1` [compound 13], the IC50 in series [1] (setting [8]) is 0.8 µM. Also, in series [2], the “inhibition of SNM1B in gel-based assay” value is listed as “good inhibition”. For the same compound, the “cell death as single agent” value in series [3] is on record as at most 10%. Besides, in series [4], the “inhibition of SNM1A in gel-based assay” value is recorded as “good inhibition”.

On to “AZ1353160 [compound 4, reference compound]”, for which, in series [1] (setting [8]), the “SNM1A IC50” value is listed as “an IC50 value could not be calculated”.

The values above are taken from article PMC11134331, “Cell-active small molecule inhibitors validate the SNM1A DNA repair nuclease as a cancer target” (Chemical Science, 2024).
